Assay results: US20220016102A1, “ER PROTEIN REGULATORS AND USE THEREOF” (ShanghaiTech University, priority 2018, published 2022)

What was measured:
[1] = target: T1, ER protein (Homo sapiens, UniProt P03372); test: Western blotting analysis of ER protein degradation in T47D cell line; assay type: cell-based; set-up: western blotting detection of the level of intracellular ER protein; endogenous in cells; host or cells: T47D; conditions: degradation of ER protein, T47D cells, drug treatment for 16 hours, Western blot gray values vs DMSO control; read-out: DC50 (nM)/T47Dcell line
T1 sequence (P03372 1-595): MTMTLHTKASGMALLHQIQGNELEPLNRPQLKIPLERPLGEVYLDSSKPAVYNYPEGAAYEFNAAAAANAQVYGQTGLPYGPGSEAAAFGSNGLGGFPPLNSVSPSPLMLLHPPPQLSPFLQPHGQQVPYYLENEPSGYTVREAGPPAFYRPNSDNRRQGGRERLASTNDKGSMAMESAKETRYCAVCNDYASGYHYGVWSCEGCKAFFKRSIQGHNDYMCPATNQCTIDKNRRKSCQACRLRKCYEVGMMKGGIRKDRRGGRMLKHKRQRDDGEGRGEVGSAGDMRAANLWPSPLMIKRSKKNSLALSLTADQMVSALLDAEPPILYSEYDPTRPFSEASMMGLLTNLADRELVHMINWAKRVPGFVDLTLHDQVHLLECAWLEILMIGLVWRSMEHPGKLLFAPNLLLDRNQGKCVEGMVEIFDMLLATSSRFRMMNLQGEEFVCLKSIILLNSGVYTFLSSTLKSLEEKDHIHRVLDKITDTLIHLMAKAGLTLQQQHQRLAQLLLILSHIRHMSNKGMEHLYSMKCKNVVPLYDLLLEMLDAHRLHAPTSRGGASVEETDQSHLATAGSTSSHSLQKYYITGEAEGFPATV
Procedure: T47D cells were cultured in an incubator with 5% CO2 at 37° C. Complete medium was RPMI1640 supplemented with 10% Foetal bovine serum (FBS), 100 U/ml Penicillin and Streptomycin, and 0.77 μg/mL recombinant human insulin. Western blotting analysis of T47D cell line: • Cells were plated in a 24-well plate at a cell seeding […] of 1.5×10^5 cells/mL, with 1 ml cell suspensions per well. • After 24 h the cells were adherent, and the cells in each well were treated with 1 μL a certain concentration of ER protein regulators of the present disclosure. […] Afterwards, the membranes were block by using the Blocking Buffer, and the antibody incubation and development were performed. (The above procedures were all based on the antibody product manual of the manufacturer) DC50 value (the drug concentration required for degrading proteins by 50%, abbreviated as DC50) reads method: comparing the gray values of the Western blotting bands for the drug treatment with the gray values of the Western blotting band for the DMSO control, and reading the drug concentration range corresponding to the gray value of the Western blotting bands for the drug treatment which is equal to half of the gray value of the Western blotting band for the DMSO control. DC50 value could also be calculated as follows: using software ImageJ to quantify the gray values of the Western blotting bands for the drug treatment, fitting the relationship curve between drug concentrations and gray values, and from the fitted curve, calculating the drug concentration corresponding to half of the gray value of the Western blotting band for the DMSO control.

[2] = target: T1, ER protein; test: Western blotting analysis of ER protein degradation in MCF-7 cell line; assay type: cell-based; set-up: western blotting detection of the level of intracellular ER protein; endogenous in cells; conditions: MCF-7 cells, Western blot gray values vs DMSO control
Procedure: MCF-7 were cultured in ncubator with 5% CO2 at 37° C. Complete medium was EMEM supplemented with 10% FBS, 100 U/mL Penicillin and Streptomycin, and 0.77 μg/mL recombinant human insulin. […]
DC50 value (the drug concentration required for degrading proteins by 50%, abbreviated as DC50) reads method: comparing the gray values of the Western blotting bands for the drug treatment with the gray values of the Western blotting band for the DMSO control, and reading the drug concentration range corresponding to the gray value of the Western blotting bands for the drug treatment which is equal to half of the gray value of the Western blotting band for the DMSO control.
DC50 value could also be calculated as follows: using software ImageJ to quantify the gray values of the Western blotting bands for the drug treatment, fitting the relationship curve between drug concentrations and gray values, and from the fitted curve, calculating the drug concentration corresponding to half of the gray value of the Western blotting band for the DMSO control.

Row | Compound | DC50 [1] | DC50 [2]
1 | Cc1ncsc1-c1ccc(CNC(=O)[C@@H]2C[C@@H](O)CN2C(=O)[C@@H](NC(=O)CCCCCC(=O)NCCOc2ccc(C(=C(CCCl)c3ccccc3)c3ccc(O)cc3)cc2)C(C)(C)C)cc1 [SIAIS208033, N1-(2-(4-(4-chloro-1-(4-hydroxyphenyl)-2-phenylbut-1-en-1-yl)phenoxy)ethyl)-N7-((S)-1-((2S,4R)-4-hydroxy-2-((4-(4-methylthiazol-5-yl)benzyl)carbamoyl)pyrrolidin-1-yl)-3,3-dimethyl-1-oxobutan-2-yl)heptanediamide] | < 10 nM | < 10 nM
2 | Cc1ncsc1-c1ccc(CNC(=O)[C@@H]2C[C@@H](O)CN2C(=O)[C@@H](NC(=O)CCOCCOCCOCCOCCC(=O)NCCOc2ccc(C(=C(CCCl)c3ccccc3)c3ccc(O)cc3)cc2)C(C)(C)C)cc1 [SIAIS208019, N1-(2-(4-(4-chloro-1-(4-hydroxyphenyl)-2-phenylbut-1-en-1-yl)phenoxy)ethyl)-N16-((S)-1-((2S,4R)-4-hydroxy-2-((4-(4-methylthiazol-5-yl)benzyl)carbamoyl)pyrrolidin-1-yl)-3,3-dimethyl-1-oxobutan-2-yl)-4,7,10,13-tetraoxahexadecanediamide] | < 10 nM | < 50 nM
3 | Cc1ncsc1-c1ccc(CNC(=O)[C@@H]2C[C@@H](O)CN2C(=O)[C@@H](NC(=O)CCCC(=O)NCCOc2ccc(C(=C(CCCl)c3ccccc3)c3ccc(O)cc3)cc2)C(C)(C)C)cc1 [SIAIS208031, N1-(2-(4-(4-chloro-1-(4-hydroxyphenyl)-2-phenylbut-1-en-1-yl)phenoxy)ethyl)-N5-((S)-1-((2S,4R)-4-hydroxy-2-((4-(4-methylthiazol-5-yl)benzyl)carbamoyl)pyrrolidin-1-yl)-3,3-dimethyl-1-oxobutan-2-yl)glutaramide] | < 100 nM | < 100 nM
4 | Cc1ncsc1-c1ccc(CNC(=O)[C@@H]2C[C@@H](O)CN2C(=O)[C@@H](NC(=O)CCCCCCCCCC(=O)NCCOc2ccc(C(=C(CCCl)c3ccccc3)c3ccc(O)cc3)cc2)C(C)(C)C)cc1 [SIAIS208037, N1-(2-(4-(4-chloro-1-(4-hydroxyphenyl)-2-phenylbut-1-en-1-yl)phenoxy)ethyl)-N11-((S)-1-((2S,4R)-4-hydroxy-2-((4-(4-methylthiazol-5-yl)benzyl)carbamoyl)pyrrolidin-1-yl)-3,3-dimethyl-1-oxobutan-2-yl)undecanediamide] | < 10 nM | < 10 nM
5 | Cc1ncsc1-c1ccc(CNC(=O)[C@@H]2C[C@@H](O)CN2C(=O)[C@@H](NC(=O)CCCCCCCCC(=O)NCCOc2ccc(/C(=C(/CCCl)c3ccccc3)c3ccc(O)cc3)cc2)C(C)(C)C)cc1 [SIAIS208036, N1-(2-(4-((Z)-4-chloro-1-(4-hydroxyphenyl)-2-phenylbut-1-en-1-yl)phenoxy)ethyl)-N10-((S)-1-((2S,4R)-4-hydroxy-2-((4-(4-methylthiazol-5-yl)benzyl)carbamoyl)pyrrolidin-1-yl)-3,3-dimethyl-1-oxobutan-2-yl)decanediamide] | < 10 nM | < 10 nM
6 | Cc1ncsc1-c1ccc(CNC(=O)[C@@H]2C[C@@H](O)CN2C(=O)[C@@H](NC(=O)CCOCCOCCOCCC(=O)NCCOc2ccc(C(=C(CCCl)c3ccccc3)c3ccc(O)cc3)cc2)C(C)(C)C)cc1 [SIAIS208018, (2S,4R)-1-((S)-2-(tert-butyl)-19-(4-(4-chloro-1-(4-hydroxyphenyl)-2-phenylbut-1-en-1-yl)phenoxy)-4,16-dioxo-7,10,13-trioxa-3,17-diazanonadecanoyl)-4-hydroxy-N-(4-(4-methylthiazol-5-yl)benzyl)pyrrolidine-2-carboxamide] | < 50 nM | < 50 nM
7 | Cc1ncsc1-c1ccc(CNC(=O)[C@@H]2C[C@@H](O)CN2C(=O)[C@@H](NC(=O)CCCCCCCCCCCCC(=O)NCCOc2ccc(C(=C(CCCl)c3ccccc3)c3ccc(O)cc3)cc2)C(C)(C)C)cc1 [SIAIS208038, N1-(2-(4-(4-chloro-1-(4-hydroxyphenyl)-2-phenylbut-1-en-1-yl)phenoxy)ethyl)-N14-((S)-1-((2S,4R)-4-hydroxy-2-((4-(4-methylthiazol-5-yl)benzyl)carbamoyl)pyrrolidin-1-yl)-3,3-dimethyl-1-oxobutan-2-yl)tetradecanediamide] | < 50 nM | < 10 nM
8 | Cc1ncsc1-c1ccc(CNC(=O)[C@@H]2C[C@@H](O)CN2C(=O)[C@@H](NC(=O)CCCCCCC(=O)NCCOc2ccc(C(=C(CCCl)c3ccccc3)c3ccc(O)cc3)cc2)C(C)(C)C)cc1 [SIAIS208034, N1-(2-(4-(4-chloro-1-(4-hydroxyphenyl)-2-phenylbut-1-en-1-yl)phenoxy)ethyl)-N8-((S)-1-((2S,4R)-4-hydroxy-2-((4-(4-methylthiazol-5-yl)benzyl)carbamoyl)pyrrolidin-1-yl)-3,3-dimethyl-1-oxobutan-2-yl)octanediamide] | < 10 nM | < 10 nM
9 | Cc1ncsc1-c1ccc(CNC(=O)[C@@H]2C[C@@H](O)CN2C(=O)[C@@H](NC(=O)CCC(=O)NCCOc2ccc(C(=C(CCCl)c3ccccc3)c3ccc(O)cc3)cc2)C(C)(C)C)cc1 [SIAIS208020, N1-(2-(4-(4-chloro-1-(4-hydroxyphenyl)-2-phenylbut-1-en-1-yl)phenoxy)ethyl)-N4-((S)-1-((2S,4R)-4-hydroxy-2-((4-(4-methylthiazol-5-yl)benzyl)carbamoyl)pyrrolidin-1-yl)-3,3-dimethyl-1-oxobutan-2-yl)succinamide] | < 10 nM | < 50 nM
10 | Cc1ncsc1-c1ccc(CNC(=O)[C@@H]2C[C@@H](O)CN2C(=O)[C@@H](NC(=O)CCCCCCCCCCCCCCC(=O)NCCOc2ccc(C(=C(CCCl)c3ccccc3)c3ccc(O)cc3)cc2)C(C)(C)C)cc1 [SIAIS208039, N1-(2-(4-(4-chloro-1-(4-hydroxyphenyl)-2-phenylbut-1-en-1-yl)phenoxy)ethyl)-N16-((S)-1-((2S,4R)-4-hydroxy-2-((4-(4-methylthiazol-5-yl)benzyl)carbamoyl)pyrrolidin-1-yl)-3,3-dimethyl-1-oxobutan-2-yl)hexadecanediamide] | < 50 nM | < 100 nM
11 | Cc1ncsc1-c1ccc(CNC(=O)[C@@H]2C[C@@H](O)CN2C(=O)[C@@H](NC(=O)COCCOCC(=O)NCCOc2ccc(C(=C(CCCl)c3ccccc3)c3ccc(O)cc3)cc2)C(C)(C)C)cc1 [SIAIS208041, (2S,4R)-1-((S)-2-(tert-butyl)-14-(4-(4-chloro-1-(4-hydroxyphenyl)-2-phenylbut-1-en-1-yl)phenoxy)-4,11-dioxo-6,9-dioxa-3,12-diazatetradecanoyl)-4-hydroxy-N-(4-(4-methylthiazol-5-yl)benzyl)pyrrolidine-2-carboxamide] | < 10 nM | 10 nM
12 | Cc1ncsc1-c1ccc(CNC(=O)[C@@H]2C[C@@H](O)CN2C(=O)[C@@H](NC(=O)CCCCC(=O)NCCOc2ccc(C(=C(CCCl)c3ccccc3)c3ccc(O)cc3)cc2)C(C)(C)C)cc1 [SIAIS208032, N1-(2-(4-(4-chloro-1-(4-hydroxyphenyl)-2-phenylbut-1-en-1-yl)phenoxy)ethyl)-N6-((S)-1-((2S,4R)-4-hydroxy-2-((4-(4-methylthiazol-5-yl)benzyl)carbamoyl)pyrrolidin-1-yl)-3,3-dimethyl-1-oxobutan-2-yl)adipamide] | < 50 nM | < 100 nM
